# Source: paper PMC4109836, “Analysis of the co-operative interaction between the allosterically regulated proteins GK and GKRP using tryptophan fluorescence” (Biochemical Journal, 2014)
# Legend:
# GKRP-WT [1] = molecular target: T1, GKRP-WT (Homo sapiens, UniProt Q14397); test: Ligand binding to free GKRP-WT measured by TF of GKRP; conditions: ligand alone
# T1 construct: FLAG; made in house; host or cells: Escherichia coli
# T1 sequence (Q14397 1-625): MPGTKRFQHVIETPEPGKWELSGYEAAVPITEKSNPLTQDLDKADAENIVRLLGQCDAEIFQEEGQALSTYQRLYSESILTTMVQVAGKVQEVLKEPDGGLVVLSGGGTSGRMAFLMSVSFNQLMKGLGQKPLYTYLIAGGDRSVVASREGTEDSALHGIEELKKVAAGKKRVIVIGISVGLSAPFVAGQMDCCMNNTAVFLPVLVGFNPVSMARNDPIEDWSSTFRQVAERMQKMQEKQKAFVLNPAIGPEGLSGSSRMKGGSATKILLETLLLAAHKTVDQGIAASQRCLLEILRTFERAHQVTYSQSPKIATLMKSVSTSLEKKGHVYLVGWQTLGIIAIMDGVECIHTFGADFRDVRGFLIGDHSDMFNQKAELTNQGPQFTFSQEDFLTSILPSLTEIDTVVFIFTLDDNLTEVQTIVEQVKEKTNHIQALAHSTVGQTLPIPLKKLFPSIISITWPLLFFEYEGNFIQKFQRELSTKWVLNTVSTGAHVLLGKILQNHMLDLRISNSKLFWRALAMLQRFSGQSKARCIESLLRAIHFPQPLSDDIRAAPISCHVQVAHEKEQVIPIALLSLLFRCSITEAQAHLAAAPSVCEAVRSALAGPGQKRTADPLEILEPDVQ
# GKRP-P446L [2] = molecular target: T2, GKRP-P446L (Homo sapiens, UniProt Q14397, P446L); test: Ligand binding to free GKRP-P446L measured by TF of GKRP; conditions: ligand alone
# T2 construct: FLAG; made in house; host or cells: Escherichia coli
# T2 sequence (Q14397 1-625 P446L): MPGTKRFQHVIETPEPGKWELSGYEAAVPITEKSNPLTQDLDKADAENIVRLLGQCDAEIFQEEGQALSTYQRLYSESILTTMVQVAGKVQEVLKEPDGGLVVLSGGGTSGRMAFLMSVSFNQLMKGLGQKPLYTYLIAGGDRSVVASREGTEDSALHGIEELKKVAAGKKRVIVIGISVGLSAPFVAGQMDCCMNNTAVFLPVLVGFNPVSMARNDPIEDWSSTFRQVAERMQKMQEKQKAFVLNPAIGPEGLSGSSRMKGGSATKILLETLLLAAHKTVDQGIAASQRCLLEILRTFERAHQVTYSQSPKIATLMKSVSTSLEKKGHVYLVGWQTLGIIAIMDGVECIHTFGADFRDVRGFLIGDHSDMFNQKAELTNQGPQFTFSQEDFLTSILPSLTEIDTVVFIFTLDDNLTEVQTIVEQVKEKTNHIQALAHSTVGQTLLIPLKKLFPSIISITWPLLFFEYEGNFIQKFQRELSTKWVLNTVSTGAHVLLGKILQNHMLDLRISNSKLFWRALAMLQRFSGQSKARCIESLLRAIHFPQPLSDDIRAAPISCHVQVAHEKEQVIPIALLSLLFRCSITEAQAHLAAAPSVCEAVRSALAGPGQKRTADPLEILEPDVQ
# GKRP-WT [3] = molecular target: T3, GKRP-WT (Homo sapiens, UniProt P35557+Q14397, W167F/W257F/W99R); test: Titration of GKRP-WT with GK-W99R/W167F/W257F (GK–GKRP complex assembly) by TF; format: binding; conditions: saturating levels of F6P;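 further: tryptophan fluorescence of GKRP titrated with GK, excitation 295 nm, emission read at 340 nm, phosphate buffer pH 7.2, Hill equation fitting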
# T3 construct: FLAG; GST (cleaved yes); made in house; host or cells: Escherichia coli
# T3 sequence (Q14397 1-625): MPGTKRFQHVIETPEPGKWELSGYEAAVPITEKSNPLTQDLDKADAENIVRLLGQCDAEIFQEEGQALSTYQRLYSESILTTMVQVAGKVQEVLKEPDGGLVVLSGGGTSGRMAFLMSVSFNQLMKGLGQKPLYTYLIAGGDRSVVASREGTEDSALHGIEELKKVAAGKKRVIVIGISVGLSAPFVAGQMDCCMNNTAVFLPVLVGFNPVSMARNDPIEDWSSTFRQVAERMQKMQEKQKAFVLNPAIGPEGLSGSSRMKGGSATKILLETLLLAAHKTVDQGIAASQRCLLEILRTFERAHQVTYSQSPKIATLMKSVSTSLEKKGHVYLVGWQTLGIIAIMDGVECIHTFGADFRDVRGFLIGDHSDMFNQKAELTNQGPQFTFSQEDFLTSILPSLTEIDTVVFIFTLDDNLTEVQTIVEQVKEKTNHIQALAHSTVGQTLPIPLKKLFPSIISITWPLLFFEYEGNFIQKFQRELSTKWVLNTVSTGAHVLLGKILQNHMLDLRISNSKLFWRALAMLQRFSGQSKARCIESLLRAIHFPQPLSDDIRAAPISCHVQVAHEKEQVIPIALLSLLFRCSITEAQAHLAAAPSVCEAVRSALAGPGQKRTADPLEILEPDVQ
# T3 sequence (P35557 1-465 W99R/W167F/W257F): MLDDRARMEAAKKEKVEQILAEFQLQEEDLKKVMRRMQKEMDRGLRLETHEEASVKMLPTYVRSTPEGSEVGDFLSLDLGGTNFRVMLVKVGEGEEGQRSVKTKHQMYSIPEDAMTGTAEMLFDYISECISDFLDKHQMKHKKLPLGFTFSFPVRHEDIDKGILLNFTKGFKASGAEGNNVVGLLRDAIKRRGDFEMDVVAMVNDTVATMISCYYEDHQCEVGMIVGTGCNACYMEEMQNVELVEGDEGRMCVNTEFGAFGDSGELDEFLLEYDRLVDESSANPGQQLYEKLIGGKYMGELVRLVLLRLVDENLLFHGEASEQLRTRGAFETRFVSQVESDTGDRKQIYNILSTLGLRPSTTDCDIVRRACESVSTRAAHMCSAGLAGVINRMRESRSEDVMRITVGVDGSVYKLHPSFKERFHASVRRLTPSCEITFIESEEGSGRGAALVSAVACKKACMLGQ
# GKRP-P446L [4] = molecular target: T4, GKRP-P446L (Homo sapiens, UniProt P35557+Q14397, P446L/W167F/W257F/W99R); test: Titration of GKRP-P446L with GK-W99R/W167F/W257F (GK–GKRP complex assembly) by TF; format: binding; conditions: saturating levels of F6P
# T4 construct: FLAG; GST (cleaved yes); made in house; host or cells: Escherichia coli
# T4 sequence (Q14397 1-625 P446L): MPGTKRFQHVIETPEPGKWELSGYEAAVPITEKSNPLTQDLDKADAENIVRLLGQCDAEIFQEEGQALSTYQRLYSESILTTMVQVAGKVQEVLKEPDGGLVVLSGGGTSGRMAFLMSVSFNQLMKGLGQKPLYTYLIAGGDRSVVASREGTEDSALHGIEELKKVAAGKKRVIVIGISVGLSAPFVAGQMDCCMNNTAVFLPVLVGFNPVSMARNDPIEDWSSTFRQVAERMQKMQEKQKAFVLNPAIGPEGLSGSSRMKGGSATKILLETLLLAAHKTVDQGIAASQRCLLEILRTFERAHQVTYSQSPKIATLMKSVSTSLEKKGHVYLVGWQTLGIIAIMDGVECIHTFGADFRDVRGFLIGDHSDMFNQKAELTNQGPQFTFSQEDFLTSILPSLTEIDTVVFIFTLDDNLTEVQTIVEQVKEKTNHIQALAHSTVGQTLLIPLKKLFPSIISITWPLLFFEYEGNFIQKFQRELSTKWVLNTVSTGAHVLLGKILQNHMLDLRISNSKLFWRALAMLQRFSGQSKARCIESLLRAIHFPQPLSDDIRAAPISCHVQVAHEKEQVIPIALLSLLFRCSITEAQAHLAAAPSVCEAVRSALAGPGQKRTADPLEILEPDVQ
# T4 sequence (P35557 1-465 W99R/W167F/W257F): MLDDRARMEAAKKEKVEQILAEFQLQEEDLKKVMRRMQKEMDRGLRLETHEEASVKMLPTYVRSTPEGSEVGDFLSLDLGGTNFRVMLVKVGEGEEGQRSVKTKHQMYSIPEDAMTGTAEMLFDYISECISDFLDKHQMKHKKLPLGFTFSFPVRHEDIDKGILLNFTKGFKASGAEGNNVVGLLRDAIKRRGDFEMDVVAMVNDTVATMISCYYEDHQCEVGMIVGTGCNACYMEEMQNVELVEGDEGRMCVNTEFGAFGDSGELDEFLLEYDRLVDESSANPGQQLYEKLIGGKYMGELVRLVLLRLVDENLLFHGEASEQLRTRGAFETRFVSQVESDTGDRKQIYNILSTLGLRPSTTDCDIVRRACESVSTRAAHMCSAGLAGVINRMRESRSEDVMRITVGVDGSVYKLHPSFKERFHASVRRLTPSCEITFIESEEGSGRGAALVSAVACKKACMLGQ
# Procedure: Spectra were measured with a Fluorolog-3-21 Jobin-Yvon Spex Instrument SA equipped with a 450 W Xenon lamp for excitation and a cooled R2658P Hamamatsu photomultiplier tube for detection. For all measurements, 90° geometry was employed and 295 nm excitation wavelengths were used to observe fluorescence emission in the 300–500 nm range. For TF, spectra slit width was set to provide a bandpath of 3 nm for excitation and 3 nm for emission. Spectra were corrected for instrumental response using Spex instrument software. A thermostatically controlled cell holder maintained sample temperature at 20°C. A thermocoupler was used to measure sample temperature. The buffer used contained 20 mM phosphate, 50 mM KCl, 1 mM EDTA and 1 mM DTT (pH 7.2).
# Fluorescence data were obtained via the stepwise addition of the appropriate amount of non-fluorescent GK-W99R/W167F/W257F to GKRP in a fluorescence cuvette. […] The change in GKRP protein fluorescence during titration was also measured using time-dependent scans. A manual procedure was used such that a typical titration with 10–12 additions required 20–25 min to perform. The same buffer as described above was routinely used unless stated otherwise. The bandpath was 0.5 nm at 295 nm for excitation and 12 nm at 340 nm for emission. […] For some graphical presentations the linear form of the Hill equation was used: log[F/(Fsat−F)]=H log x−H log KD [46].
# [5] = Structural stability from urea denaturation curves (TF); format: physicochemical, human; conditions: buffer pH 7.2, 20°C; ±0.05
Molecule,"H (Hill number) (GKRP-WT [1]; 0.3 μM GKRP-WT, 20°C)","ΔF (relative fluorescence change at 340 nm) (GKRP-WT [1]; 0.3 μM GKRP-WT, 20°C)","Kd (GKRP-WT [1]; 0.3 μM GKRP-WT, 20°C, read-out: S0.5) [µM]",effect on the TF signal of GKRP-WT (GKRP-WT [1]),"H (Hill number) (GKRP-P446L [2]; 0.3 μM GKRP-P446L, 20°C)","ΔF (relative fluorescence change at 340 nm) (GKRP-P446L [2]; 0.3 μM GKRP-P446L, 20°C)","Kd (GKRP-P446L [2]; 0.3 μM GKRP-P446L, 20°C, read-out: S0.5) [µM]",effect on the TF signal of GKRP-P446L (GKRP-P446L [2]),effect on the binding of GKRP-WT to GK (GKRP-WT [3]),effect on the binding of GKRP-P446L to GK (GKRP-P446L [4]),ΔG(H2O) from urea denaturation curves [5] [kcal/mol]
"O=C(CO)[C@@H](O)[C@H](O)[C@H](O)COP(=O)([O-])[O-].[Na+].[Na+] [F6P, D-fructose 6-phosphate disodium salt]",3.6,0.04,278,increase,2.94,0.07,242,increase,no significant effect,increased the affinity of GKRP-P446L for GK,
"GKRP-WT: recombinant human wild-type GK regulatory protein (protein, left off: FLAG, end not stated, state not stated, recombinant human wild-type GK regulatory protein) MPGTKRFQHVIETPEPGKWELSGYEAAVPITEKSNPLTQDLDKADAENIVRLLGQCDAEIFQEEGQALSTYQRLYSESILTTMVQVAGKVQEVLKEPDGGLVVLSGGGTSGRMAFLMSVSFNQLMKGLGQKPLYTYLIAGGDRSVVASREGTEDSALHGIEELKKVAAGKKRVIVIGISVGLSAPFVAGQMDCCMNNTAVFLPVLVGFNPVSMARNDPIEDWSSTFRQVAERMQKMQEKQKAFVLNPAIGPEGLSGSSRMKGGSATKILLETLLLAAHKTVDQGIAASQRCLLEILRTFERAHQVTYSQSPKIATLMKSVSTSLEKKGHVYLVGWQTLGIIAIMDGVECIHTFGADFRDVRGFLIGDHSDMFNQKAELTNQGPQFTFSQEDFLTSILPSLTEIDTVVFIFTLDDNLTEVQTIVEQVKEKTNHIQALAHSTVGQTLPIPLKKLFPSIISITWPLLFFEYEGNFIQKFQRELSTKWVLNTVSTGAHVLLGKILQNHMLDLRISNSKLFWRALAMLQRFSGQSKARCIESLLRAIHFPQPLSDDIRAAPISCHVQVAHEKEQVIPIALLSLLFRCSITEAQAHLAAAPSVCEAVRSALAGPGQKRTADPLEILEPDVQ",,,,,,,,,,,1.56
